Results published in patent US8148117B2, “Microorganism and process for the preparation of L-methionine” (Evonik Degussa GmbH, priority 2005, dated 2012).
Read-outs that look alike come from different tables or passages of the source.

What was measured:
MetC [1] = molecular target: MetC (Bordetella avium, UniProt Q07703); conditions: read-out: MetC Km; B. avium MetC; Gentry-Weeks et al. 1993; cited from earlier work
MetC [2] = molecular target: MetC (Escherichia coli, UniProt P06721); conditions: Dwivedi et al. 1982, cited from earlier work
Chain of MetC (Escherichia coli, UniProt P06721) (P06721 2-395): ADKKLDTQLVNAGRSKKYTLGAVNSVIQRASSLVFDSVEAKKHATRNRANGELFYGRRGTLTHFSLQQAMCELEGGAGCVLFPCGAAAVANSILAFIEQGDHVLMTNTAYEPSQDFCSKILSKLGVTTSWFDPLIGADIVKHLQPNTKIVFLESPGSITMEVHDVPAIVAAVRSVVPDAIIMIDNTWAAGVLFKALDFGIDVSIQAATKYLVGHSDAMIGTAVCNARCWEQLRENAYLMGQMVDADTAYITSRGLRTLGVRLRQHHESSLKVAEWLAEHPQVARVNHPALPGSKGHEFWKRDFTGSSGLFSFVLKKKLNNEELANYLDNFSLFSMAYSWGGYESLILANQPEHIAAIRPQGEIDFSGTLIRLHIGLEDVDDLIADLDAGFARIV

MetC [3] = molecular target: MetC (Salmonella typhimurium, UniProt P18949); conditions: read-out: MetC Km; S. thyphimurium MetC; Dwivedi et al. 1982; cited from earlier work
Chain of MetC (Salmonella typhimurium, UniProt P18949) (P18949 whole entry): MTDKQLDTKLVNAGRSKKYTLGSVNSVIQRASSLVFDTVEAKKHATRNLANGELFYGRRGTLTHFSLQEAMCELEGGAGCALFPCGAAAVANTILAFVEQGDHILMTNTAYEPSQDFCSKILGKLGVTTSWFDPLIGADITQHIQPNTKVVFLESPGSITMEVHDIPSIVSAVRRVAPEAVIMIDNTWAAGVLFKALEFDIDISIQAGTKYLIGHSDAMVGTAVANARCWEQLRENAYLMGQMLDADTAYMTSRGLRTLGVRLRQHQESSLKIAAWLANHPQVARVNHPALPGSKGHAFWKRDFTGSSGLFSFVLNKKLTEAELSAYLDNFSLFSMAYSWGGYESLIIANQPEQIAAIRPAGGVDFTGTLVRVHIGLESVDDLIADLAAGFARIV

MetC [4] = molecular target: T1, MetC (Corynebacterium glutamicum, UniProt Q93QC6); type: biochemical; conditions: for Cleavage by MetC: MetC added to MetB assay products after MetB removal, HPLC and photometric SH-group assay
T1 construct: His-Tag (N); made in house; host or cells: Escherichia coli
T1 sequence (Q93QC6 1-368): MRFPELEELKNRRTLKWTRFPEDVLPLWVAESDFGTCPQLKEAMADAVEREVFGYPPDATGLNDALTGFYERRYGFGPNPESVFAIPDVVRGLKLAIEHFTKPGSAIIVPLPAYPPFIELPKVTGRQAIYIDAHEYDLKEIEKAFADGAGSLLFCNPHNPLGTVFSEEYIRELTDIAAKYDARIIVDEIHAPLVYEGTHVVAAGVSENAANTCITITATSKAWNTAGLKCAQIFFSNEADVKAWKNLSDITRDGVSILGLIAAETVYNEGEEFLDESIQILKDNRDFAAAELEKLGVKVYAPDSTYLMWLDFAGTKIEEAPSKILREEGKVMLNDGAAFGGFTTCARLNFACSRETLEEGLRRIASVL
Protocol: (§1) Overexpression and purification of enzymes. MetB and MetC of C. glutamicum were cloned in the vector pQE30 (Qiagen). Expression with this vector comprises the addition of a His-Tag to the N-terminus of the expressed protein. Escherichia coli was transformed with the plasmid and selected by ampicillin resistance (100 μg/mL). Transformed E. coli was cultivated (100 μg/mL ampicillin, 37° C., 230 rpm) on terrific broth (Losen et al., Biotechnol Prog 2004, 204, 1062-8) and induced at an optical density of 1 (600 nm) by addition of 1 mM isopropyl thiogalactoside (final concentration). The cells were harvested by centrifugation (4225 g, 15 min, 2° C.) after 16 h of induced growth, washed and resuspended in phosphate buffer (100 mM, 100 μM pyridoxal phosphate, 1 mg/mL DNAse 1, pH 7.4 at 4° C.) and extracted by sonication (5×15 sec, 20 micron). The crude extracts were separated from cell debris by centrifugation (30 min, 2° C., and 20000 g). […] After the protein was applied to the column, it was washed with 10 vol. of 0.02 M sodium phosphate buffer. Elution was carried out with a linear gradient with 0.02 M sodium phosphate buffer (pH 7.4) containing 0.5 M NaCl and 0.5 M imidazol. The fractions containing the protein were checked for purity with SDS-PAGE and then pooled together. Imidazole was separated from the proteins by ultrafiltration.
In vitro assays of MetB and MetC. Activity of MetB and MetC was followed photometrically (Helios α, Thermo Electronic, Dreieich, Germany). Enzyme activities were measured by increase or decrease of free SH-groups using Ellman's reagent (Extinction at 412 nm) (Ellman and Lysko, 1979). The assay mixtures contained 1.25 mM cysteine or homocysteine and 3 mM O-acetyl homoserine for MetB-assays and 1.25 mM cystathionine or about 1.25 mM homolanthionine for MetC-assays. Homolanthionine was not commercially available. The MetC-assay was therefore carried out using the products of the MetB-assay. MetB was removed by ultrafiltration. Thus, the homolanthionine concentration could not be adjusted in the assays. […]

MetB [5] = molecular target: T2, MetB (Corynebacterium glutamicum, UniProt Q79VD9); assay: In vitro assay of MetB, Km from Lineweaver-Burk plots; type: biochemical; conditions: C. glutamicum MetB, with O-acetyl homoserine, this study
T2 sequence (Q79VD9 1-386): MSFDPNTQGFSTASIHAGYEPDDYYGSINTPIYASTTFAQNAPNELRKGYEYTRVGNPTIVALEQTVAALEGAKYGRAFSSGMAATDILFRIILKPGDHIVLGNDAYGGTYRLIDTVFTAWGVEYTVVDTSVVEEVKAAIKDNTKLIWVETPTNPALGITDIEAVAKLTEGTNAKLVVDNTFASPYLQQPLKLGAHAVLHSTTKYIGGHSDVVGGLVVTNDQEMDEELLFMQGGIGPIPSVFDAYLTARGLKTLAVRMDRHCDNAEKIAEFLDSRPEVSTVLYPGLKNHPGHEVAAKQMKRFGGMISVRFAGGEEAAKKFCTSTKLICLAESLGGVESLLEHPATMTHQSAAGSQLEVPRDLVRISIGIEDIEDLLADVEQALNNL
Protocol: as §1, with “The fractions containing the protein were checked for purity with SDS-PAGE and then pooled together. Imidazole was separated from the proteins by ultrafiltration.” left out
In vitro assays of MetB and MetC. […] Enzyme activities were measured by increase or decrease of free SH-groups using Ellman's reagent (Extinction at 412 nm) (Ellman and Lysko, 1979). […]

MetB [6] = conditions: read-out: MetB Km; Spinach MetB; Ravanel et al. 1995; cited from earlier work
MetB [7] = molecular target: MetB (Escherichia coli, UniProt P00935); conditions: E. coli MetB; Holbrook et al. 1990; cited from earlier work
Chain of MetB (Escherichia coli, UniProt P00935) (P00935 whole entry): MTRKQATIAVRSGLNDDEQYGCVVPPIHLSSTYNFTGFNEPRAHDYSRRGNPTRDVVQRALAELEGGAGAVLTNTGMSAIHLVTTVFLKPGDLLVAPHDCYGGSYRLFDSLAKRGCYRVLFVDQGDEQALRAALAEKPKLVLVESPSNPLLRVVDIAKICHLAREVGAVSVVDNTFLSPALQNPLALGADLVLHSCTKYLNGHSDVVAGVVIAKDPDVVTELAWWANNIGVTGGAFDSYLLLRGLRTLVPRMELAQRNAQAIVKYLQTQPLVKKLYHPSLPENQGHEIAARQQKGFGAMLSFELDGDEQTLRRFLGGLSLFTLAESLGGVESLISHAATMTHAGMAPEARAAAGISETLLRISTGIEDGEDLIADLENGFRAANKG

[8] = substrate: N[C@@H](CCS)C(=O)O; assay: purified protein, by the assay type; conditions: other: C. glutamicum MetB, with O-acetyl homoserine, this study; 37.0 °C

Chain of MetC (Bordetella avium, UniProt Q07703) (Q07703 whole entry): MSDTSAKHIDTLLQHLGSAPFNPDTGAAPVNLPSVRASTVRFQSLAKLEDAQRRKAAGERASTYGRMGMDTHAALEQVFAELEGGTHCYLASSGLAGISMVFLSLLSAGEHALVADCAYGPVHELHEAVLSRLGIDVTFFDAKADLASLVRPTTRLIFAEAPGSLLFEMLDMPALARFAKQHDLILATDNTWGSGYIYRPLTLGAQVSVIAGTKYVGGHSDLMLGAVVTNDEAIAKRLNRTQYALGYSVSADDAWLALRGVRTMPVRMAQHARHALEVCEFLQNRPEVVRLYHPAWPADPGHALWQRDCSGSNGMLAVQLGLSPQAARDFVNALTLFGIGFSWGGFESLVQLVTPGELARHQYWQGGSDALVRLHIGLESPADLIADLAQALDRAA

Q: With `N[C@@H](CCSC[C@H](N)C(=O)O)C(=O)O` [L-cystathionine] as the molecule, how does the Km (MetC [1]) read?
A: 70 µM

Q: What about the Km (MetC [2]; E. coli MetC) of the same molecule?
A: 40 µM

Q: And the Km (MetC [3])?
A: 220 µM

Q: What about the Km (MetC [4]; C. glutamicum MetC, this study) of the same molecule?
A: 107 µM

Q: What about the “Cleavage by MetC” value (MetC [4]) of the same molecule?
A: complete cleavage

Q: Which Km (MetB [5]) does the source give for `N[C@@H](CS)C(=O)O` [L-cysteine] here?
A: 258 µM

Q: And the Km (MetB [6])?
A: 180 µM

Q: What about the Km (MetB [7]) of the same molecule?
A: 50 µM

Q: For `N[C@@H](CCSCC[C@H](N)C(=O)O)C(=O)O` [L-homolanthionine, S-[(3S)-3-amino-3-carboxypropyl]-L-homocysteine], which Km (MetC [2]; E. coli MetC) is on record?
A: 4540 µM

Q: And the Km (MetC [2]; E. coli cystathionase)?
A: 4500 µM

Q: What about the “Cleavage by MetC” value (MetC [4]) of the same molecule?
A: only poorly cleaved

B1: MetB (Corynebacterium glutamicum ATCC 13032) (protein)
chain: T2 sequence (Q79VD9 1-386)
Q: For B1, which Km [8] is on record?
A: 541 µM
